Data taken from US10189810B2, “Pyrazolyl-substituted pyridone compounds as serine protease inhibitors” (VERSEON CORPORATION, priority 2014, dated 2019).

Legend:
Human thrombin = target: T1, Human thrombin (Homo sapiens, UniProt P00734); assay: thrombin protease inhibition assay (chromogenic substrate S-2238); assay type: biochemical; conditions: 3 nM thrombin, 125 μM S-2238, 10 min pre-incubation, RT, read at 405 nm
T1 construct: Thrombin (fIIa, the active form of prothrombin) is another serine protease; purchased Haematologic Technologies Inc
Protocol: The thrombin activity reported herein (e.g., Table A) was obtained as follows. […] Thrombin was assayed in buffer containing 0.05 M Tris (pH 7.4), 0.015 M NaCl and 0.01% PEG-8000. The final concentration of enzyme used was 3 nM thrombin. […] All assays were performed in 96-well microtiter plates at room temperature (RT). […] Inhibitor IC50 values were determined by adding test compound as ten point, three-fold serial dilutions in buffer solution, as known in the art. The plate was read at 10 minutes after substrate addition. The IC50 was calculated by plotting the percent (%) inhibition against compound concentration and fitting the data to a constrained four parameter sigmoidal curve, as known in the art.

Human KLKB1 protein = target: T2, Human KLKB1 protein (Homo sapiens, UniProt P03952); assay: KLKB1 kallikrein protease inhibition assay (chromogenic substrate S-2302); assay type: biochemical; conditions: 3 nM KLKB1, 250 μM S-2302, 10 min pre-incubation, RT, read at 405 nm
T2 construct: purchased Enzyme Research Labs
Protocol: The KLKB1 kallikrein activity reported herein (e.g., Table A) was obtained as follows. Human KLKB1 protein was obtained from Enzyme Research Labs. The chromogenic substrate S-2302 was obtained from DiaPharma. KLKB1 was assayed in buffer containing 0.05 M Tris (pH 7.4), 0.01 M NaCl and 0.2% w/v PEG-8000. The final concentration of enzyme used was 3 nM KLKB1. The final concentration of substrate used was 250 μM S-2302 for KLKB1. All assays were performed in 96-well microtiter plates at room temperature (RT). […] The plate was read at 10 minutes after substrate addition. The IC50 was calculated by plotting the percent (%) inhibition against compound concentration and fitting the data to a constrained four parameter sigmoidal curve, as known in the art.

T2 sequence (P03952 391-638 limits assumed): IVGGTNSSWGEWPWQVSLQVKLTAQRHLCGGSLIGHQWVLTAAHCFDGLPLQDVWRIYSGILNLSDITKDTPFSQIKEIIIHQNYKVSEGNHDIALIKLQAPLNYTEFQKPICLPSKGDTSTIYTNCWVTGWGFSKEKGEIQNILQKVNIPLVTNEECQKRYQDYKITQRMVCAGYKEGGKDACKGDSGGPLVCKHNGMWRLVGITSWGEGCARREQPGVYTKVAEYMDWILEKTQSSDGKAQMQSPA
T2 sequence (P03952 20-390 partner limits assumed): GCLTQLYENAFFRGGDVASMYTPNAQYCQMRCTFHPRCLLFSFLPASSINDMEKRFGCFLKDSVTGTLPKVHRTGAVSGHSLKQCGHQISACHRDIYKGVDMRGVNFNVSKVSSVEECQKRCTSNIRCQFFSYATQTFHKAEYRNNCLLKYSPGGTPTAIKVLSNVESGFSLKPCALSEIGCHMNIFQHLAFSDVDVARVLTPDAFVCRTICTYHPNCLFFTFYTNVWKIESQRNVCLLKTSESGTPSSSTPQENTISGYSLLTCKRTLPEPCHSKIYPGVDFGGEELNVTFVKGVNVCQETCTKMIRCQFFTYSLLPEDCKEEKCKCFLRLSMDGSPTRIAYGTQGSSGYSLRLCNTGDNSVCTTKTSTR

**Q.** `CC(C)(C)C(=O)n1nc(-c2cc(N3CCOCC3)c[nH]c2=O)cc1NCc1ccc(Cl)s1` [Entry 1, 3-(5-[(5-chlorothiophen-2-yl)methyl]amino-1-(2,2-dimethylpropanoyl)-1H-pyrazol-3-yl)-5-(morpholin-4-yl)-1,2-dihydropyridin-2-one] was tested. Which IC50 (Human thrombin) did it give?
**A.** Its IC50 is under 100 nM.

**Q.** What about the IC50 (Human KLKB1 protein) of the same molecule?
**A.** The IC50 was 1000 to 10000 nM.

**Q.** For `CC(C)(C)C(=O)n1nc(-c2cc(-c3ccccc3)c[nH]c2=O)cc1NCc1ccc(Cl)s1` [Entry 2, 3-(5-[(5-chlorothiophen-2-yl)methyl]amino-1-(2,2-dimethylpropanoyl)-1H-pyrazol-3-yl)-5-phenyl-1,2-dihydropyridin-2-one], which IC50 (Human thrombin) is on record?
**A.** The IC50 was under 100 nM.

**Q.** And the IC50 (Human KLKB1 protein)?
**A.** Its IC50 is 10000 to 100000 nM.

**Q.** Which results are given for `COc1ccccc1C(=O)n1nc(-c2cc(-c3cccnc3)c[nH]c2=O)cc1NCc1ccc(Cl)s1` [Entry 3, 3-(5-[(5-chlorothiophen-2-yl)methyl]amino-1-(2-methoxybenzoyl)-1H-pyrazol-3-yl)-5-(pyridin-3-yl)-1,2-dihydropyridin-2-one]?
**A.** IC50 (Human thrombin): 100 to 1000 nM; IC50 (Human KLKB1 protein): 100 to 1000 nM

**Q.** With `Cc1c[nH]c(=O)c(-c2cc(NCc3ccc(Cl)s3)n(C(=O)c3ccoc3)n2)c1` [Entry 4, 3-(5-[(5-chlorothiophen-2-yl)methyl]amino-1-(furan-3-carbonyl)-1H-pyrazol-3-yl)-5-methyl-1,2-dihydropyridin-2-one] as the molecule, how does the IC50 (Human thrombin) read?
**A.** The IC50 was under 100 nM.

**Q.** What about the IC50 (Human KLKB1 protein) of the same molecule?
**A.** The IC50 was 100 to 1000 nM.

**Q.** Which IC50 (Human thrombin) does the source give for `COc1ccccc1C(=O)n1nc(-c2c[nH]c(=O)c(Br)c2)cc1NCc1ccc(Cl)s1` [Entry 5, 3-bromo-5-(5-[(5-chlorothiophen-2-yl)methyl]amino-1-(2-methoxybenzoyl)-1H-pyrazol-3-yl)-1,2-dihydropyridin-2-one] here?
**A.** Its IC50 is 100 to 1000 nM.

**Q.** What about the IC50 (Human KLKB1 protein) of the same molecule?
**A.** Its IC50 is 1000 to 10000 nM.

**Q.** Which IC50 (Human thrombin) does the source give for `O=c1[nH]cc(-c2cc(NCc3ccc(Cl)s3)[nH]n2)cc1Br` [Entry 6, 3-bromo-5-(5-[(5-chlorothiophen-2-yl)methyl]amino-1H-pyrazol-3-yl)-1,2-dihydropyridin-2-one] here?
**A.** The IC50 was over 100000 nM.

**Q.** And the IC50 (Human KLKB1 protein)?
**A.** The IC50 was over 100000 nM.

**Q.** With `O=C(c1ccoc1)n1nc(-c2ccc(Br)c(=O)[nH]2)cc1NCc1ccc(Cl)s1` [Entry 7, 3-bromo-6-(5-[(5-chlorothiophen-2-yl)methyl]amino-1-(furan-3-carbonyl)-1H-pyrazol-3-yl)-1,2-dihydropyridin-2-one] as the molecule, how does the IC50 (Human thrombin) read?
**A.** Its IC50 is 100 to 1000 nM.

**Q.** What about the IC50 (Human KLKB1 protein) of the same molecule?
**A.** Its IC50 is 10000 to 100000 nM.

**Q.** Which results are given for `CC(C)(C)C(=O)n1nc(-c2cc[nH]c(=O)c2)cc1NCc1ccc(Cl)s1` [Entry 8, 4-(5-[(5-chlorothiophen-2-yl)methyl]amino-1-(2,2-dimethylpropanoyl)-1H-pyrazol-3-yl)-1,2-dihydropyridin-2-one]?
**A.** IC50 (Human thrombin): < 100 nM; IC50 (Human KLKB1 protein): 1000 to 10000 nM

**Q.** Which results are given for `COCCn1ccc(-c2cc(NCc3ccc(Cl)s3)n(C(=O)C(C)(C)C)n2)cc1=O` [Entry 9, 4-(5-[(5-chlorothiophen-2-yl)methyl]amino-1-(2,2-dimethylpropanoyl)-1H-pyrazol-3-yl)-1-(2-methoxyethyl)-1,2-dihydropyridin-2-one]?
**A.** IC50 (Human thrombin): < 100 nM; IC50 (Human KLKB1 protein): 1000 to 10000 nM

**Q.** Which IC50 (Human thrombin) does the source give for `CC(C)(C)C(=O)n1nc(-c2ccn(Cc3ccccn3)c(=O)c2)cc1NCc1ccc(Cl)s1` [Entry 10, 4-(5-[(5-chlorothiophen-2-yl)methyl]amino-1-(2,2-dimethylpropanoyl)-1H-pyrazol-3-yl)-1-(pyridin-2-ylmethyl)-1,2-dihydropyridin-2-one] here?
**A.** The IC50 was under 100 nM.

**Q.** And the IC50 (Human KLKB1 protein)?
**A.** Its IC50 is 1000 to 10000 nM.

**Q.** With `CC(C)(C)C(=O)n1nc(-c2ccn(Cc3cccnc3)c(=O)c2)cc1NCc1ccc(Cl)s1` [Entry 11, 4-(5-[(5-chlorothiophen-2-yl)methyl]amino-1-(2,2-dimethylpropanoyl)-1H-pyrazol-3-yl)-1-(pyridin-3-ylmethyl)-1,2-dihydropyridin-2-one] as the molecule, how does the IC50 (Human thrombin) read?
**A.** The IC50 was under 100 nM.

**Q.** What about the IC50 (Human KLKB1 protein) of the same molecule?
**A.** Its IC50 is 100 to 1000 nM.

**Q.** `CC(C)(C)C(=O)n1nc(-c2ccn(CC(=O)N3CCOCC3)c(=O)c2)cc1NCc1ccc(Cl)s1` [Entry 12, 4-(5-[(5-chlorothiophen-2-yl)methyl]amino-1-(2,2-dimethylpropanoyl)-1H-pyrazol-3-yl)-1-[2-(morpholin-4-yl)-2-oxoethyl]-1,2-dihydropyridin-2-one] was tested. Which IC50 (Human KLKB1 protein) did it give?
**A.** The IC50 was 10000 to 100000 nM.

**Q.** How did the IC50 (Human thrombin) turn out when `CC(C)(C)C(=O)n1nc(-c2cc(N3CCOCC3)[nH]c(=O)c2)cc1NCc1ccc(Cl)s1` [Entry 13, 4-(5-[(5-chlorothiophen-2-yl)methyl]amino-1-(2,2-dimethylpropanoyl)-1H-pyrazol-3-yl)-6-(morpholin-4-yl)-1,2-dihydropyridin-2-one] was run?
**A.** The IC50 was 1000 to 10000 nM.

**Q.** What about the IC50 (Human KLKB1 protein) of the same molecule?
**A.** Its IC50 is over 100000 nM.

**Q.** `O=C(c1ccco1)n1nc(-c2cc(-c3cccnc3)[nH]c(=O)c2)cc1NCc1ccc(Cl)s1` [Entry 15, 4-(5-[(5-chlorothiophen-2-yl)methyl]amino-1-(furan-2-carbonyl)-1H-pyrazol-3-yl)-6-(pyridin-3-yl)-1,2-dihydropyridin-2-one] was tested. Which IC50 (Human thrombin) did it give?
**A.** Its IC50 is 1000 to 10000 nM.

**Q.** And the IC50 (Human KLKB1 protein)?
**A.** Its IC50 is over 100000 nM.

**Q.** Which IC50 (Human thrombin) does the source give for `O=C(c1ccoc1)n1nc(-c2cc[nH]c(=O)c2)cc1NCc1ccc(Cl)s1` [Entry 16, 4-(5-[(5-chlorothiophen-2-yl)methyl]amino-1-(furan-3-carbonyl)-1H-pyrazol-3-yl)-1,2-dihydropyridin-2-one] here?
**A.** Its IC50 is under 100 nM.

**Q.** And the IC50 (Human KLKB1 protein)?
**A.** Its IC50 is 1000 to 10000 nM.

**Q.** With `COCCn1ccc(-c2cc(NCc3ccc(Cl)s3)n(C(=O)c3ccoc3)n2)cc1=O` [Entry 17, 4-(5-[(5-chlorothiophen-2-yl)methyl]amino-1-(furan-3-carbonyl)-1H-pyrazol-3-yl)-1-(2-methoxyethyl)-1,2-dihydropyridin-2-one] as the molecule, how does the IC50 (Human thrombin) read?
**A.** Its IC50 is under 100 nM.

**Q.** And the IC50 (Human KLKB1 protein)?
**A.** The IC50 was 1000 to 10000 nM.

**Q.** What does the source list for `O=C(c1ccoc1)n1nc(-c2ccn(Cc3ccccn3)c(=O)c2)cc1NCc1ccc(Cl)s1` [Entry 18, 4-(5-[(5-chlorothiophen-2-yl)methyl]amino-1-(furan-3-carbonyl)-1H-pyrazol-3-yl)-1-(pyridin-2-ylmethyl)-1,2-dihydropyridin-2-one]?
**A.** IC50 (Human thrombin): < 100 nM; IC50 (Human KLKB1 protein): 100 to 1000 nM

**Q.** With `CC(C)(C)C(=O)n1nc(-c2ccc(=O)[nH]c2)cc1NCc1ccc(Cl)s1` [Entry 31, 5-(5-[(5-chlorothiophen-2-yl)methyl]amino-1-(2,2-dimethylpropanoyl)-1H-pyrazol-3-yl)-1,2-dihydropyridin-2-one] as the molecule, how does the IC50 (Human KLKB1 protein) read?
**A.** Its IC50 is 10000 to 100000 nM.

**Q.** `CC(C)(C)C(=O)n1nc(-c2ccc(=O)n(CC(=O)N3CCOCC3)c2)cc1NCc1ccc(Cl)s1` [Entry 32, 5-(5-[(5-chlorothiophen-2-yl)methyl]amino-1-(2,2-dimethylpropanoyl)-1H-pyrazol-3-yl)-1-[2-(morpholin-4-yl)-2-oxoethyl]-1,2-dihydropyridin-2-one] was tested. Which IC50 (Human KLKB1 protein) did it give?
**A.** The IC50 was over 100000 nM.

**Q.** With `CC(C)(C)C(=O)n1nc(-c2cccc(=O)[nH]2)cc1NCc1ccc(Cl)s1` [Entry 43, 6-(5-[(5-chlorothiophen-2-yl)methyl]amino-1-(2,2-dimethylpropanoyl)-1H-pyrazol-3-yl)-1,2-dihydropyridin-2-one] as the molecule, how does the IC50 (Human KLKB1 protein) read?
**A.** The IC50 was 1000 to 10000 nM.

**Q.** Which IC50 (Human KLKB1 protein) does the source give for `CC(C)(C)C(=O)n1nc(-c2cccc(=O)n2Cc2ccccn2)cc1NCc1ccc(Cl)s1` [Entry 44, 6-(5-[(5-chlorothiophen-2-yl)methyl]amino-1-(2,2-dimethylpropanoyl)-1H-pyrazol-3-yl)-1-(pyridin-2-ylmethyl)-1,2-dihydropyridin-2-one] here?
**A.** Its IC50 is over 100000 nM.

**Q.** `CC(C)(C)C(=O)n1nc(-c2cccc(=O)n2CC(=O)N2CCOCC2)cc1NCc1ccc(Cl)s1` [Entry 45, 6-(5-[(5-chlorothiophen-2-yl)methyl]amino-1-(2,2-dimethylpropanoyl)-1H-pyrazol-3-yl)-1-[2-(morpholin-4-yl)-2-oxoethyl]-1,2-dihydropyridin-2-one] was tested. Which IC50 (Human KLKB1 protein) did it give?
**A.** Its IC50 is over 100000 nM.
